The results in this text go back to ChEMBL document CHEMBL1131953, “Synthesis of a tetrasubstituted bicyclo [2.2.2] octane as a potential inhibitor of influenza virus sialidase” (Bioorg Med Chem Lett, 1999).

The subject of one experiment is Influenza A virus. The experiment in a line: Inhibitory activity against sialidase of influenza A. The class given is functional, organism-based.
Experiment [1] concerns Influenza B virus. The experiment can be described thus: Inhibitory activity against sialidase of influenza B. It counts as functional, organism-based.
Experiment [2] relates to Influenza B virus. The experiment in a line: Inhibitory activity against sialidase of influenza B at a concentration of 660 uM. The class given is functional.

Structures are written as SMILES.

Take `CCCO[C@@H]1C=C(C(=O)O)C[C@H](N)[C@H]1NC(C)=O`: in the experiment on Influenza A virus, half-maximal inhibition (IC50) was put at 0.13 µM.

Take `CCCO[C@@H]1CC2(C(=O)O)CC[C@@]1(NC(C)=O)[C@@H](O)C2` (single isomer, unassigned): the IC50 in the experiment with Influenza A virus and in the experiment on Influenza B virus [1] was 660 µM in each case. The compound also registered an inhibition at 660 µM with Influenza B virus [2] of 12%.
